Results as given in ChEMBL document CHEMBL3351556, “Thee-component, one-pot synthesis of hexahydroazepino[3,4-b]indole and tetrahydro-1H-pyrido[3,4-b]indole derivatives and evaluation of their cytotoxicity” (Bioorg Med Chem Lett, 2014).

What was measured:
Assay type in all cases: functional, cell-based
[1] = system: DU-145; assay: Antiproliferative activity against human DU145 cells after 48 hrs by MTT/quantitative colorimetric method; conditions: DU-145, 48 h
[2] = system: HeLa; assay: Antiproliferative activity against human HeLa cells after 48 hrs by MTT/quantitative colorimetric method
[3] = system: A549; assay: Antiproliferative activity against human A549 cells after 48 hrs by MTT/quantitative colorimetric method; conditions: A549, 48 h
[4] = system: MCF7; assay: Antiproliferative activity against human MCF7 cells after 48 hrs by MTT/quantitative colorimetric method; conditions: MCF7, 48 h

Row | SMILES | IC50 [1] | IC50 [2] | IC50 [3] | IC50 [4]
1 | Cn1c2c(c3ccccc31)CCC(=O)N(c1cccc(F)c1)C2C(=O)NC1CCCCC1 (configuration not stated) | 52 µM | 44 µM | > 100 µM | 94 µM
2 | Cn1c2c(c3ccccc31)CC(=O)N(c1ccc(Br)cc1)C2C(=O)NC1CCCCC1 (configuration not stated) | 45 µM | 49 µM | > 100 µM | 52 µM
3 | Cn1c2c(c3ccccc31)CC(=O)N(c1ccc(Cl)cc1)C2C(=O)NC(C)(C)C (configuration not stated) | > 100 µM | 83 µM | 63 µM | 96 µM
4 | Cn1c2c(c3ccccc31)CC(=O)N(c1ccc(F)cc1)C2C(=O)NC1CCCCC1 (configuration not stated) | 47 µM | 11 µM | 62 µM | 50 µM
5 | Cc1ccc(C)c(N2C(=O)Cc3c(n(C)c4ccccc34)C2C(=O)NC2CCCCC2)c1 (configuration not stated) | > 100 µM | > 100 µM | > 100 µM | 95 µM
6 | Cn1c2c(c3ccccc31)CCC(=O)N(c1ccc(F)cc1)C2C(=O)NC(C)(C)C (configuration not stated) | 70 µM | 46 µM | > 100 µM | 50 µM
7 | Cn1c2c(c3ccccc31)CCC(=O)N(c1ccc(Cl)cc1)C2C(=O)NC(C)(C)C (configuration not stated) | 21 µM | 13 µM | 18 µM | 18 µM
8 | Cn1c2c(c3ccccc31)CCC(=O)N(c1ccc(Cl)cc1)C2C(=O)NC1CCCCC1 (configuration not stated) | 13 µM | 12 µM | 27 µM | 29 µM
9 | Cn1c2c(c3ccccc31)CCC(=O)N(c1ccc(F)cc1)C2C(=O)NC1CCCCC1 (configuration not stated) | 90 µM | 48 µM | 59 µM | 50 µM
10 | Cn1c2c(c3ccccc31)CCC(=O)N(c1ccc(F)c(Cl)c1)C2C(=O)NC(C)(C)C (configuration not stated) | 56 µM | 67 µM | 35 µM | > 100 µM
11 | Cn1c2c(c3ccccc31)CCC(=O)N(c1ccc(F)c(Cl)c1)C2C(=O)NC1CCCCC1 (configuration not stated) | 82 µM | > 100 µM | > 100 µM | 54 µM
12 | Cc1ccc(C)c(N2C(=O)Cc3c(n(C)c4ccccc34)C2C(=O)NC(C)(C)C)c1 (configuration not stated) | 63 µM | 95 µM | 49 µM | 87 µM
13 | Cc1ccc(C)c(N2C(=O)CCc3c(n(C)c4ccccc34)C2C(=O)NC2CCCCC2)c1 (configuration not stated) | > 100 µM | > 100 µM | > 100 µM | > 100 µM
14 | Cn1c2c(c3ccccc31)CC(=O)N(c1ccc(F)cc1)C2C(=O)NC(C)(C)C (configuration not stated) | 78 µM | 26 µM | > 100 µM | 61 µM
15 | Cn1c2c(c3ccccc31)CC(=O)N(c1ccc(Cl)cc1)C2C(=O)NC1CCCCC1 (configuration not stated) | 42 µM | 55 µM | 59 µM | > 100 µM
16 | Cn1c2c(c3ccccc31)CC(=O)N(c1cccc(F)c1)C2C(=O)NC1CCCCC1 (configuration not stated) | > 100 µM | 25 µM | 85 µM | 95 µM
17 | Cn1c2c(c3ccccc31)CCC(=O)N(c1ccc(Br)cc1)C2C(=O)NC1CCCCC1 (configuration not stated) | 55 µM | 63 µM | > 100 µM | 78 µM
18 | Cn1c2c(c3ccccc31)CC(=O)N(c1ccc(F)c(Cl)c1)C2C(=O)NC(C)(C)C (configuration not stated) | 95 µM | > 100 µM | 80 µM | > 100 µM
